“And” between values parts separate entries of the source, which are not always exact repeats. Equal entries are not always repeated. “Also recorded” adds a separate entry of the source.
Legend:
[1] = test system: bovine retinal endothelial cells (BREC); test: Cell growth assay (DNA content) in bovine retinal endothelial cells; type: cell-based
Method: Primary cultures of bovine retinal endothelial cells (BREC) were isolated by homogenization and a series of filtration steps as described in King et al., J. Clin. Invest., 1985, 75:1028-36. BREC were subsequently cultured with endothelial cell basal medium (EBM; Clonetics, San Diego, Calif.). supplemented with 10% plasma-derived horse serum (PDHS), 50 mg/l heparin, and 50 μg/ml endothelial cell growth factor (ECGF, Roche, Indianapolis, Ind.). Cells were characterized for homogeneity by their immunoreactivity with anti-factor VIII antibody. Cells remained morphologically unchanged under these conditions, as confirmed by light microscopy. Only cells from passages 2 through 7 were used for the experiments.
(§1) A cell growth assay was performed as follows: Cells were plated onto 12-well culture plates and incubated overnight. The cells were treated with vehicle, vascular endothelial growth factor (VEGF, R & D Systems, Minneapolis, Minn.) at 25 ng/ml, serum, compounds, or combinations thereof. The medium is changed during the incubation period, with fresh medium and fresh test compound added every 2 days. After incubation for indicated time period at 37° C., the cells were lysed in 0.1% SDS and DNA content was measured by means of Hoechst-33258 dye and a fluorometer (model TKO-100, Hoefer Scientific Instruments, San Francisco, Calif.). It has been shown that total cellular DNA content measured in this manner correlates closely with actual cell number as determined by hemocytometer counting of trypsinized cells.
(§2) Determinations were performed in triplicate and all experiments were repeated at least three times. Results are expressed as the mean ±standard deviation, unless otherwise indicated. Statistical analysis employed Student's t-test or analysis of variance to compare quantitative data populations with normal distributions and equal variance. Data were analyzed using the Mann-Whitney rank sum test or the Kruskal-Wallis test for populations with non-normal distributions or unequal variance. A P-value of <0.05 was considered statistically significant.

[2] = test system: human retinal pericytes (HRPC); test: Human retinal pericyte proliferation assay (Methylene blue, OD650); type: cell-based; conditions: for toxicity on HRPC: initial assay; for HRPC proliferation: initial experiment, treated once, medium not changed
Method: In addition to studies with primary cell cultures of bovine retinal pericytes described above, experiments were performed with a human cell line obtained from Clonetics (San Diego, Calif.) of retinal pericytes (catalog no. CC-2542 PyCRt). These human retinal pericytes (HRPC) were cultured in Dulbecco's modified Eagle's medium (DMEM, Gibco BRL, Grand Island, N.Y.) with 5.6 mM glucose and 20% fetal bovine serum (FBS, Gibco BRL, Grand Island, N.Y.).
Proliferation assays were performed as follows: HRPC were plated onto 24-well culture plates (3000 cells/well) in 5 or 10% FBS-DMEM with 5.6 mM glucose and incubated overnight. The cells were treated once with vehicle alone or with vehicle and several concentrations of XMP.627 ([SEQ ID NO: 4]), XMP.664 ([SEQ ID NO: 5]), XMP.679 ([SEQ ID NO: 3]), or XMP.728 ([SEQ ID NO: 6]) for 5 or 6 days. The medium was not changed, nor were additional amounts of test compounds added as described in the experiments of part A above. The cells were fixed and stained with Methylene blue and proliferation assayed by observation at OD650.

[3] = test system: bovine retinal pericytes (BRPC); test: Cell growth assay (DNA content, cell number) in bovine retinal pericytes; type: cell-based
Method: as §1, §2
Primary cultures of bovine retinal pericytes (BRPC) were isolated by homogenization and a series of filtration steps as described in King et al., J. Clin. Invest., 1985, 75:1028-36. BRPC were cultured in Dulbecco's modified Eagle's medium (DMEM, Gibco BRL, Grand Island, N.Y.) with 5.5 mM glucose and 20% fetal bovine serum (FBS, Gibco BRL, Grand Island, N.Y.). Cells were characterized for homogeneity by their immunoreactivity with monoclonal antibody 3G5 [Nayak et al., J. Exp. Med. 1988, 167:1003-15]. Cells remained morphologically unchanged under these conditions, as confirmed by light microscopy. Only cells from passages 2 through 7 were used for the experiments.
A cell growth assay was performed as described above in Example 1 and the medium was changed, with fresh medium and fresh test compound added every 2 or 3 days, preferably every 2 days. […] At 20% FBS a six to seven fold increase of total DNA was detected.

[4] = test system: Bovine retinal pigment epithelial cells (RPEC); test: Cell growth assay in bovine retinal pigment epithelial cells; type: cell-based; conditions: 75 μg/ml
Method: as §1
Bovine retinal pigment epithelial cells (RPEC) were isolated by gentle scraping after removal of the neural retina and incubation with 0.2% collagenase as described in King et al., Diabetes, 1987, 36:1460-7. RPEC were cultured in DMEM with 5.5 mM glucose and 10% calf serum (CS, Gibco BRL, Grand Island, N.Y.). Cells were cultured in 5% CO2 at 37° C., and media were changed every other days. Cells were characterized for their homogeneity by immunoreactivity with anti-cytokeratin antibody for RPEC. […]

[5] = test system: MAP kinase phosphorylation; test: MAP kinase phosphorylation in BRPC; type: cell-based, bovine; conditions: 75 μg/ml
Method: Experiments were also performed in which the level of MAP kinase phosphorylation was determined in BRPC treated with 75 μg/ml rBPI21 or 5 μg/ml XMP.679. […] These observations indicate that exemplary BPI protein products rBPI21 and, to a lesser extent, XMP.679, enhance MAP kinase phosphorylation in BRPC.

Q: For VEGF [reference compound], which “increase of DNA content” value ([1]; VEGF alone at 25 ng/ml) is on record?
A: Its value is 3 to 5 fold and 3 to 4 fold.

Q: Which “toxicity on HRPC” value [2] does the source give for “XMP.365: BPI protein product, SEQ ID NO: 11 (KWLIQLFHKK; XMP.365; listed as Homo sapiens)” here?
A: Its value is “some toxicities”.

Q: How did the “concentration of maximum HRPC proliferation” value ([2]; 5% FBS) turn out when “XMP.627: BPI-derived peptide, SEQ ID NO: 4 (KLFRAQAKAKG; XMP.627; listed as Homo sapiens)” was run?
A: Its value is “approximately 5 μg/ml”.

Q: And the “effect on HRPC proliferation” value ([2]; 10% FBS)?
A: Its value is “did increase HRPC proliferation”.

Q: What about the “effect on HRPC growth” value ([2]; above 10 μg/ml, 5% FBS) of the same molecule?
A: The value was “slight growth inhibitory effect”.

Q: And the “effect on HRPC proliferation” value ([2]; approximately 0.5, 1, 5, 8 μg/ml, 5% FBS)?
A: Its value is “increased HRPC proliferation in a dose responsive manner”.

Q: “XMP.629: BPI protein product, SEQ ID NO: 12 (KLFRAQAKA; XMP.629; listed as Homo sapiens)” was tested. Which HRPC proliferation [2] did it give?
A: The HRPC proliferation was “enhanced the proliferation of HRPC”.

Q: For “XMP.664: BPI-derived peptide, SEQ ID NO: 5 (KLFRAQAK; XMP.664; listed as Homo sapiens)”, which “effect on HRPC growth” value ([2]; 10 μg/ml and higher, 5% FBS) is on record?
A: Its value is “slight growth inhibitory effect”.

Q: And the “effect on HRPC proliferation” value ([2]; 10 μg/ml, 10% FBS)?
A: Its value is “increased HRPC proliferation”.

Q: What about the “concentration of maximum HRPC proliferation” value ([2]; 5% FBS) of the same molecule?
A: The value was “approximately 5 μg/ml”.

Q: What about the “effect on HRPC proliferation” value ([2]; above 10 μg/ml, 10% FBS) of the same molecule?
A: The value was “inhibited proliferation”.

Q: What about the “effect on HRPC proliferation” value ([2]; approximately 0.5, 1, 5 μg/ml, 5% FBS) of the same molecule?
A: The value was “increased HRPC proliferation in a dose responsive manner”.

Q: For “XMP.676: BPI protein product, SEQ ID NO: 13 (KAVIQVVAKK; XMP.676; listed as Homo sapiens)”, which HRPC proliferation [2] is on record?
A: The HRPC proliferation was “enhanced the proliferation of HRPC”.

Q: With “XMP.711: BPI protein product, SEQ ID NO: 7 (KLARK; XMP.711; listed as Homo sapiens)” as the molecule, how does the HRPC proliferation [2] read?
A: The HRPC proliferation was “little or no proliferation”.

Q: Which “toxicity on HRPC” value [2] does the source give for “XMP.718: BPI protein product, SEQ ID NO: 10 (KLFRKA; XMP.718; listed as Homo sapiens)” here?
A: Its value is “some toxicities”.

Q: What does the source list for “XMP.728: BPI-derived peptide, SEQ ID NO: 6 (KLFKAQAKAKG; XMP.728; listed as Homo sapiens)”?
A: effect on HRPC proliferation ([2]; 10% FBS): to lesser extent; effect on HRPC proliferation ([2]; only at approximately 5 μg/ml, 5% FBS): increased HRPC proliferation

Q: With “XMP.768: BPI protein product, SEQ ID NO: 14 (KLFRAQAK; XMP.768; listed as Homo sapiens)” as the molecule, how does the HRPC proliferation [2] read?
A: The HRPC proliferation was “enhanced the proliferation of HRPC”.

Q: “XMP.851: BPI protein product, SEQ ID NO: 15 (KLFRAQA; XMP.851; listed as Homo sapiens)” was tested. Which HRPC proliferation [2] did it give?
A: Its HRPC proliferation is “enhanced the proliferation of HRPC”.

Q: With “XMP.852: BPI protein product, SEQ ID NO: 8 (KLFRAQ; XMP.852; listed as Homo sapiens)” as the molecule, how does the HRPC proliferation [2] read?
A: Its HRPC proliferation is “little or no proliferation”.

Q: With “XMP.861: BPI protein product, SEQ ID NO: 9 (KLFRA; XMP.861; listed as Homo sapiens)” as the molecule, how does the HRPC proliferation [2] read?
A: Its HRPC proliferation is “little or no proliferation”.

B1: rBPI21: recombinant N-terminal BPI analog, amino acids 1 to approximately 193 or 199, cysteine 132 substituted with alanine (protein, UniProt P17213 32-224, looked up, variant C132A)
chain: VNPGVVVRISQKGLDYASQQGTAALQKELKRIKIPDYSDSFKIKHLGKGHYSFYSMDIREFQLPSSQISMVPNVGLKFSISNANIKISGKWKAQKRFLKMSGNFDLSIEGMSISADLKLGSNPTSGKPTITASSCSSHINSVHVHISKSKVGWLIQLFHKKIESALRNKMNSQVCEKVTNSVSSELQPYFQTL
Q: For B1, which stimulation of proliferation ([3]; 75 μg/mL, 5, 10 or 15% FBS) is on record?
A: Its stimulation of proliferation is 3 fold.

Q: What about the “increase of DNA above basal level” value ([3]; 75 μg/ml, 5% FBS) of the same molecule?
A: Its value is 5 fold.

Q: What about the “maximum growth compared with 20% FBS” value ([3]; 75 μg/ml, 5% FBS) of the same molecule?
A: The value was “almost equaled the growth effect of 20% FBS”.

Q: And the “growth compared with 20% FBS” value ([3]; 75 μg/ml, 15% FBS)?
A: The value was “increased the growth greater then 20% FBS”.

Q: And the “effect on DNA content” value ([3]; 5, 25, 75 μg/ml, 5% FBS)?
A: Its value is “increased DNA content in a dose responsive manner”.

Q: What about the “total number of cells per well” value ([3]; 5, 25, 75 μg/ml, 5% FBS) of the same molecule?
A: The value was “increased in a dose responsive manner”.

Q: What about the effect on growth ([3]; 5, 25 and 75 μg/ml, 10% FBS) of the same molecule?
A: Its effect on growth is “induced the growth of pericyte”.

Q: And the “growth compared with 20% FBS” value ([3]; 25 and 75 μg/ml, 10% FBS)?
A: Its value is “appeared to improve growth above that of 20% FBS”.

Q: And the “effect on RPEC growth” value [4]?
A: Its value is “had no effect”.

Q: And the “time of maximum MAP kinase phosphorylation after addition” value [5]?
A: Its value is 15 min.

Q: And the “effect on MAP kinase phosphorylation” value ([5]; 1 to 60 minutes)?
A: The value was “increased MAP kinase phosphorylation over time”.

Q: What about the “maximum MAP kinase phosphorylation compared with 20% FBS” value ([5]; 15 minutes) of the same molecule?
A: Its value is “nearly equaled the effect of 20% FBS”.

Q: And the HRPC proliferation [2]?
A: Its HRPC proliferation is “little or no proliferation”.

Q: And the “effect on DNA content” value ([1]; 5 μg/ml compound, with and without VEGF)?
A: Its value is “did not have a significant effect”.

Q: And the “effect on DNA content (VEGF-dependent growth)” value ([1]; VEGF 25 ng/ml plus 25 μg/ml compound)?
A: Its value is “did not have a significant effect”.

Q: And the “effect on DNA content (VEGF-dependent growth)” value ([1]; VEGF 25 ng/ml plus 75 μg/ml compound)?
A: The value was “decreased significantly the DNA content; also recorded: prevented VEGF-dependent growth”.

Q: What about the “effect on total DNA content (growth)” value ([1]; compound alone without VEGF, 25 or 75 μg/ml) of the same molecule?
A: Its value is “did not have a significant effect”.

From US7291451B2, “Modulation of pericyte proliferation” (XOMA Technology Ltd., priority 2000, dated 2007)
